Where a SMILES comes first, the peptide text is derived from it. The star is where a group is joined. For = O=C*
What follows are compounds tested on differentiated HL-60 cells. Details: 72 h.
Format: cell-based, human
Procedure: HEK-293 cells (American Type Culture Collection, Manassas, VA, USA) were maintained in DMEM (Thermo Fisher Scientific, Waltham, MA, USA) containing 10% FBS (Thermo Fisher Scientific) in a humidified atmosphere at 5% CO2 and 37 °C. Human acute leukemia-derived HL-60 cells (RIKEN Cell Bank, Ibaraki, Japan) were cultured in RPMI-1640 medium (Thermo Fisher Scientific) containing 10% FBS in a humidified atmosphere at 5% CO2 and 37 °C. HL-60 cells were treated with 500 μM dibutyryl-cAMP (Sigma-Aldrich, St. Louis, MO, USA) for 72 h to differentiate the cells into neutrophilic/granulocytic cells as described elsewhere. The ability of MCT-2-related peptides to activate HL-60 cells differentiated into neutrophilic/granulocytic cells was evaluated by stimulation of β-hexosaminidase secretion from the cells. Briefly, differentiated HL-60 cells were washed 3 times with ice-cold HEPES-buffered Hank’s solution (HBHS; 10 mM HEPES, 136.9 mM NaCl, 5.4 mM KCl, 1.2 mM CaCl2, 0.44 mM KH2PO4, 0.49 mM MgCl2, 0.41 mM MgSO4, 0.34 mM Na2HPO4, 5.5 mM glucose, 4.2 mM NaHCO3, and 0.1% BSA, pH 7.4). The cells were resuspended in HBHS at a density of 5.6 × 10^6 cells/mL, and DNase I (Sigma-Aldrich) and cytochalasin B (Sigma-Aldrich) were each added at a final concentration of 5 μg/mL. The cell suspension in each tube (5.0 × 10^5 cells/90 μL) was preincubated at 37 °C for 10 min and stimulated with 10 μL synthetic peptide solution at 37 °C for 10 min. The inhibitory effects of inhibitors against FPR1 [CysH (Sigma-Aldrich)] and FPR2 [PBP10 (Tocris Bioscience, Bristol, UK)] on β-hexosaminidase release induced by MCT-2 and its derivatives were also evaluated in the differentiated HL-60 cells; each cell suspension prepared as above (90 μL) was transferred to a tube (5.0 × 10^5 cells/tube) with 5 μL inhibitor solution for FPR1 (CysH) or FPR2 (PBP10). Each tube was then preincubated at 37 °C for 10 min and stimulated with 5 μL synthetic peptide solution at 37 °C for 10 min. After stimulation, 200 μL ice-cold reaction quenching buffer (25 mM Tris, 123 mM NaCl, and 2.7 mM KCl, pH 7.4) was added to each cell suspension to stop the reaction. Thereafter, these tubes were centrifuged at 4 °C and 2300× g for 1 min, and each supernatant was transferred into a new tube. β-Hexosaminidase activity in the supernatant was measured as described previously. Briefly, 90 μL supernatant was transferred to each well of a 96-well microtiter plate, and 60 μL of a substrate solution for β-hexosaminidase [10 mM p-nitrophenyl N-acetyl-β-D-glucosaminide (Sigma-Aldrich), 40 mM citrate, and 70 mM NaHPO4, pH 4.5] was added to initiate the enzyme reaction. After incubation of the plate at 37 °C for 1 h, 100 μL of 400 mM glycine (pH 10.7) was added to stop the reaction. The absorbance at 415 nm for the resulting p-nitrophenol and at 490 nm for the reference was measured using a microtiter plate reader (Viento XS; BioTek Instruments, Winooski, VT, USA). The ability of each peptide to induce β-hexosaminidase release was expressed as a percentage of enzyme secretion promoted by 10 μM MCT-2(1–15) that induced the maximum response for the elucidation of full or partial agonists to the activity of MCT-2(1–15) (Figure 2 and Figure 4, Table 2) or a percentage of the total enzyme activity, which was the enzyme activity released after disruption of the cells with 0.05% Triton X-100 (Figure 3).
Compound `CC[C@H](C)[C@H](NC(=O)[C@H](CC(C)C)NC(=O)[C@H](CCCCN)NC(=O)[C@H](C)NC(=O)[C@H](CC(C)C)NC(=O)[C@@H]1CCCN1C(=O)[C@H](CC(N)=O)NC(=O)[C@@H](NC(=O)[C@H](CCCCN)NC(=O)[C@H](CCCNC(=N)N)NC(=O)[C@H](CCSC)NC(=O)[C@@H]1CCCN1C(=O)[C@@H](NC(=O)[C@H](CCSC)NC=O)[C@@H](C)O)[C@@H](C)CC)C(=O)N[C@@H](CC(N)=O)C(=O)O` [[Ala^11]MCT-2] (For-MTPMRKINPLAKLIN-OH) has an EC50 of 36.7 ± 11 nM. `CC[C@H](C)[C@H](NC(=O)[C@H](CCCCN)NC(=O)[C@H](CCCNC(=N)N)NC(=O)[C@H](CCSC)NC(=O)[C@@H]1CCCN1C(=O)[C@@H](NC(=O)[C@H](CCSC)NC=O)[C@@H](C)O)C(=O)N[C@@H](C)C(=O)N1CCC[C@H]1C(=O)N[C@@H](CC(C)C)C(=O)N[C@@H](CCSC)C(=O)N[C@@H](CCCCN)C(=O)N[C@@H](CC(C)C)C(=O)N[C@H](C(=O)N[C@@H](CC(N)=O)C(=O)O)[C@@H](C)CC` [[Ala^8]MCT-2] (For-MTPMRKIAPLMKLIN-OH) showed an EC50 of 31 ± 3.97 nM. With `CC[C@H](C)[C@H](NC(=O)[C@H](CC(C)C)NC(=O)[C@H](C)NC(=O)[C@H](CCSC)NC(=O)[C@H](CC(C)C)NC(=O)[C@@H]1CCCN1C(=O)[C@H](CC(N)=O)NC(=O)[C@@H](NC(=O)[C@H](CCCCN)NC(=O)[C@H](CCCNC(=N)N)NC(=O)[C@H](CCSC)NC(=O)[C@@H]1CCCN1C(=O)[C@@H](NC(=O)[C@H](CCSC)NC=O)[C@@H](C)O)[C@@H](C)CC)C(=O)N[C@@H](CC(N)=O)C(=O)O` [[Ala^12]MCT-2] (For-MTPMRKINPLMALIN-OH) the EC50 was 12.3 ± 0.29 nM. With `CC[C@H](C)[C@H](NC(=O)[C@H](CCCCN)NC(=O)[C@H](CCCNC(=N)N)NC(=O)[C@H](CCSC)NC(=O)[C@@H]1CCCN1C(=O)[C@@H](NC(=O)[C@H](CCSC)NC=O)[C@@H](C)O)C(=O)N[C@@H](CC(N)=O)C(=O)N1CCC[C@H]1C(=O)O` [MCT-2(1–9)] (For-MTPMRKINP-OH) the EC50 was 10800 nM. `CC[C@H](C)[C@H](NC(=O)[C@H](CC(C)C)NC(=O)[C@H](CCCCN)NC(=O)[C@H](CCSC)NC(=O)[C@H](CC(C)C)NC(=O)[C@@H]1CCCN1C(=O)[C@H](CC(N)=O)NC(=O)[C@@H](NC(=O)[C@H](CCCCN)NC(=O)[C@H](C)NC(=O)[C@H](CCSC)NC(=O)[C@@H]1CCCN1C(=O)[C@@H](NC(=O)[C@H](CCSC)NC=O)[C@@H](C)O)[C@@H](C)CC)C(=O)N[C@@H](CC(N)=O)C(=O)O` [[Ala^5]MCT-2] (For-MTPMAKINPLMKLIN-OH) showed an EC50 of 61.3 ± 0.58 nM. Work on `CC[C@H](C)[C@H](NC(=O)[C@H](CC(C)C)NC(=O)[C@H](CCCCN)NC(=O)[C@H](CCSC)NC(=O)[C@H](CC(C)C)NC(=O)[C@@H]1CCCN1C(=O)[C@H](CC(N)=O)NC(=O)[C@@H](NC(=O)[C@H](CCCCN)NC(=O)[C@H](CCCNC(=N)N)NC(=O)[C@H](CCSC)NC(=O)[C@@H]1CCCN1C(=O)[C@@H](NC(=O)[C@H](C)NC=O)[C@@H](C)O)[C@@H](C)CC)C(=O)N[C@@H](CC(N)=O)C(=O)O` [[Ala^1]MCT-2] (For-ATPMRKINPLMKLIN-OH) yielded an EC50 of over 10000 nM.

From publication PMC8071274 (International Journal of Molecular Sciences, 2021)
